Consider 13 molecules from patent US8404684B2, “Inhibitors of phosphatidylinositol 3-kinase” (Novartis AG, priority 2003, dated 2013).

As usually defined, the IC50 is the point on the concentration scale where inhibition reaches its midpoint.

The test addresses T1, recombinant GST-p110γ (human PI3Kγ, residues 38-1102) (Homo sapiens, UniProt P48736).
T1 construct: Residues 38-1102 of human PI3Kγ are subcloned into the BamH1 and EcoR1 sites; made in house; host or cells: Sf9 (Spodoptera frugiperda) insect cells, baculovirus
Kind of test: PI3Kγ in vitro kinase assay (Scintillation Proximity Assay), transfer of terminal phosphate of ATP to phosphatidylinositol. The format is biochemical. As to conditions: 12.5 μM ATP, 15 μg/ml phosphatidylinositol, 60 minutes at room temperature. An excerpt: Baculovirus expressing different fragments of PI3Kγ fused to GST have been previously described by Stoyanova, S., Bulgarelli-Leva, G., Kirsch, C., Hanck, T., Klinger, R., Wetzker, R., Wymann, M. P. (1997) Lipid- and protein kinase activities of G protein-coupled PI 3-kinase g: structure-activity analysis and interactions with wortmannin. Biochem. J., 324:489. Residues 38-1102 of human PI3Kγ are subcloned into the BamH1 and EcoR1 sites of the transfer vector pAcG2T (Pharmingen) to create a GST-PI3Kγ lacking the first 37 residues of PI3Kγ. To express the recombinant protein, Sf9 (Spodoptera frugiperda 9) insect cells are routinely maintained at densities between 3×10^5 and 3×10^6 cells/ml in serum containing TNMFH medium (Sigma). Sf9 cells, at a density of 2×10^6 are infected with human GST-PI3KγΔ34 baculovirus at a multiplicity of infection (m.o.i.) of 1 for 72 hours. The infected cells are harvested by centrifugation at 1400 g for 4 minutes at 4° C. and the cell pellets are frozen at −80° C. Both Sf9 and Sf21 cells work equally well. Sf9 cells (1×10^9) are resuspended in 100 ml cold (4° C.) lysis buffer (50 mM Tris-HCl pH 7.5, 1% Triton X-100, 150 mM NaCl, 1 mM NaF, 2 mM DTT and protease inhibitors. Cells are incubated on ice for 30 minutes then centrifuged at 15000 g for 20 minutes at 4° C. Purification of the supernatant sample is carried out at 4° C. by affinity chromatography using SEPHAROSE™ agarose gel beads coupled to glutathione (from Amersham Pharmacia Biotech). A cell lysate/GST resin ratio of 50:1 is used. The GST resin is firstly pre-rinsed to remove ethanol preservative and then equilibrated with lysis buffer. Cell lysate (supernatant) is added (usually as 50 ml lysate to 1 ml GST resin in 50 ml tubes) and gently rotated on a mixer at 4° C. for 2-3 hours. The unbound flow through sample is collected by centrifugation at 1000 g for 5 minutes at 4° C. using a DENLEY™ centrifuge. The 1 ml GST resin containing bound material is transferred to a 15 ml FALCON™ centrifuge tube for subsequent washing and elution steps. Firstly a series of 3 cycles of washings (mixing by gentle inversion) is performed with 15 ml ice cold wash Buffer A (50 mM Tris-HCl pH 7.5, 1% Triton X-100, 2 mM DTT) interspersed with centrifugation at 1000 g for 5 minutes at 4° C. A final single wash step is performed with 15 ml ice cold wash Buffer B (50 mM Tris-HCl pH 7.5, 2 mM DTT) and then centrifuged at 1000 g for 5 minutes at 4° C. The washed GST resin is finally eluted with 4 cycles of 1 ml ice cold elution buffer (50 mM Tris-HCl pH 7.5, 10 mM reduced glutathione, 2 mM DTT, 150 mM NaCl, 1 mM NaF, 50% ethylene glycol and protease inhibitors) interspersed with centrifugation at 1000 g for 5 minutes at 4° C. Samples are aliquoted and stored at −20° C.
An in vitro kinase assay is established that measures the transfer of the terminal phosphate of adenosine triphosphate to phosphatidylinositol. The kinase reaction is performed in a white 96 well microtitre plate as a Scintillation Proximity Assay. Each well contains 10 μl test compound in 5% dimethylsulphoxide and 20 μl assay mix (40 mM Tris, 200 mM NaCl, 2 mM ethyleneglycol-aminoethyl-tetraacetic acid (EGTA), 15 μg/ml phosphatidylinositol, 12.5 μM adenosine triphosphate (ATP), 25 mM MgCl2, 0.1 μCi [^33P]ATP). The reaction is started by the addition of 20 μl of enzyme mix (40 mM Tris, 200 mM NaCl, 2 mM EGTA containing recombinant GST-p110γ). […]

T1 sequence (P48736 38-1102): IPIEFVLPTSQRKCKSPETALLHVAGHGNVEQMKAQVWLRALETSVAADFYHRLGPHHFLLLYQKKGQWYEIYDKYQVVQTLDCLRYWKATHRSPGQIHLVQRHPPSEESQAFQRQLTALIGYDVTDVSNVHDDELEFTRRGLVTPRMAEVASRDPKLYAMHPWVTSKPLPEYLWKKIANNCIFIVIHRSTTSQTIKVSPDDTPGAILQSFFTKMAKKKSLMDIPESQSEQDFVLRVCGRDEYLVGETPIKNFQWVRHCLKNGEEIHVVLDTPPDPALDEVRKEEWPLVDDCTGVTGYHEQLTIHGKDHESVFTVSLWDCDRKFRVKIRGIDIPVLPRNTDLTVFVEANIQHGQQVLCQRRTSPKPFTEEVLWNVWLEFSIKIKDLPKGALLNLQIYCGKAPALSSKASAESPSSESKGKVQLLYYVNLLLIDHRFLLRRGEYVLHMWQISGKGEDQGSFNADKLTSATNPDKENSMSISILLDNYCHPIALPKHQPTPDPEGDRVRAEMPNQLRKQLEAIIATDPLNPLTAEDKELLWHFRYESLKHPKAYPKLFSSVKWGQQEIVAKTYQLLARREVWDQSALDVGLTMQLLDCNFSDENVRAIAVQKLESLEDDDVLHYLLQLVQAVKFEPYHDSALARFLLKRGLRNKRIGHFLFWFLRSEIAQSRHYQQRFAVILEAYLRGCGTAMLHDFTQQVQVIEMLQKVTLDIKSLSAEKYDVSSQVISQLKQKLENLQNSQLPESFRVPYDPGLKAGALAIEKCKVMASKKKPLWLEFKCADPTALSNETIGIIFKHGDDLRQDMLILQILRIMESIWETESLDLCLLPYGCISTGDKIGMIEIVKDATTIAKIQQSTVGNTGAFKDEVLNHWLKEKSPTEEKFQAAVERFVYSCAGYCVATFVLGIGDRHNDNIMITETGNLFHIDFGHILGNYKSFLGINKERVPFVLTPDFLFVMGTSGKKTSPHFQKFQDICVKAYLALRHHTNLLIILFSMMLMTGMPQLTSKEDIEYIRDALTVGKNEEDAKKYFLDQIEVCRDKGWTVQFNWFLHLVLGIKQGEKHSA

With `Cc1nc(Nc2cnccn2)sc1-c1ccncc1` [Example 1, (4-Methyl-5-pyridin-4-yl-thiazol-2-yl)-pyrazin-2-yl-amine], the IC50 was found to be 75 nM. The figure for `CCOCCNC(=O)Nc1nc(C)c(-c2ccnc(C(C)(C)C)n2)s1` [Example 120, 1-[5-(2-tert-butyl-pyrimidin-4-yl)-4-methyl-thiazol-2-yl]-3-(2-ethoxy-ethyl)-urea] is 8 nM; for `CC(=O)Nc1nc(C)c(-c2ccnc(C3CC3)n2)s1` [Example 27, N-[5-(2-Cyclopropyl-pyrimidin-4-yl)-4-methyl-thiazol-2-yl]-acetamide] it is 17 nM; for `CCc1cnc(CCNC(=O)Nc2nc(C)c(-c3ccnc(Cl)c3)s2)o1` [Example 33, 1-[5-(2-chloro-pyridin-4-yl)-4-methyl-thiazol-2-yl]-3-[2-(5-ethyl-oxazol-2-yl)-ethyl]-urea] it is 73 nM. The figure for “2-{3-[5-(2-methanesulfinyl-6-methyl-pyrimidin-4-yl)-4-methyl-thiazol-2-yl]-ureido}-N,N-dimethyl-acetamide [Example 67]” is 16 nM; for `Cc1nc(N)sc1-c1ccnc(C(C)(C)C)n1` [Example 91, 5-(2-tert-Butyl-pyrimidin-4-yl)-4-methyl-thiazol-2-ylamine] it is 25 nM; for `Cc1nc(Nc2cnccn2)sc1-c1ccnc(-n2ccnc2)c1` [Example 6, [5-(2-Imidazol-1-yl-pyridin-4-yl)-4-methyl-thiazol-2-yl]-pyrazin-2-yl-amine] it is 165 nM. The figure for `COCCNC(=O)Nc1nc(C)c(-c2ccnc(C(C)(C)C)n2)s1` [Example 108, 1-[5-(2-tert-butyl-pyrimidin-4-yl)-4-methyl-thiazol-2-yl]-3-(2-methoxy-ethyl)-urea] is 5 nM; for `Cc1nc(NC(=O)NCCC(=O)OC(C)(C)C)sc1-c1ccnc(C2CC2)n1` [Example 82, 3-{3-[5-(2-cyclopropyl-pyrimidin-4-yl)-4-methyl-thiazol-2-yl]-ureido}-propionic acid tert-butyl ester] it is 164 nM. Turning to `Cc1nc(Nc2cc[nH]n2)sc1-c1ccnc(N2CCOCC2)c1` [Example 11, [4-Methyl-5-(2-morpholin-4-yl-pyridin-4-yl)-thiazol-2-yl]-(1H-pyrazol-3-yl)-amine], the IC50 worked out at 93 nM. For the molecule `CCOC(=O)CCNC(=O)Nc1nc(C)c(-c2ccncc2)s1` [Example 17, 3-[3-(4-Methyl-5-pyridin-4-yl-thiazol-2-yl)-ureido]-propionic acid ethyl ester], the IC50 was determined as 106 nM.

Consider `Cc1nc(NC(=O)NCc2cccn2C)sc1-c1ccncc1` [Example 22, 1-(4-methyl-5-pyridin-4-yl-thiazol-2-yl)-3-(1-methyl-1H-pyrrol-2-ylmethyl)-urea], for which the IC50 came to 50 nM. The figure for `CCc1cnc(CCNC(=O)Nc2nc(C)c(-c3cc(C)nc(OC)n3)s2)o1` [Example 56, 1-[2-(5-Ethyl-oxazol-2-yl)-ethyl]-3-[5-(2-methoxy-6-methyl-pyrimidin-4-yl)-4-methyl-thiazol-2-yl]-urea] is 127 nM.
